Key:
Details in all cases: treatment: drug alone; 5 days
769-P [1] = test: AUC of dose-response viability curve, drug alone (arbitrary (AUC of normalised viability)); higher = less growth inhibition
Experimental: (§1)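 Primary HTS: 8 RCC cell lines treated with 8 doses (up to 10 uM) of each library drug alone for 5 days; viability read by CellTiter-Glo and normalised to DMSO. GI50 was fitted with XLfit (4-parameter), AUC is the area under the dose-response curve, and minimum viability is the lowest fraction of DMSO viability across doses.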

ACHN [2] = test: as above
Experimental: as §1

CAKI-1 [3] = test: as above
Experimental: as §1

UO-31 [4] = test: as above
Experimental: as §1

A498 [5] = test: as above
Experimental: as §1

SN12C [6] = test: as above
Experimental: as §1

786-O [7] = test: as above
Experimental: as §1

TK-10 [8] = test: as above
Experimental: as §1

769-P [9] = test: GI50, drug alone; higher = less potent
Experimental: as §1

ACHN [10] = test: GI50, drug alone; higher = less potent
Experimental: as §1

CAKI-1 [11] = test: GI50, drug alone; higher = less potent
Experimental: as §1

UO-31 [12] = test: GI50, drug alone; higher = less potent
Experimental: as §1

A498 [13] = test: GI50, drug alone; higher = less potent
Experimental: as §1

SN12C [14] = test: GI50, drug alone; higher = less potent
Experimental: as §1

786-O [15] = test: GI50, drug alone; higher = less potent
Experimental: as §1

TK-10 [16] = test: GI50, drug alone; higher = less potent
Experimental: as §1

769-P [17] = test: minimum viability across doses, drug alone, relative to DMSO (fraction); higher = less growth inhibition
Experimental: as §1

ACHN [18] = test: as above
Experimental: as §1

CAKI-1 [19] = test: as above
Experimental: as §1

UO-31 [20] = test: as above
Experimental: as §1

A498 [21] = test: as above
Experimental: as §1

SN12C [22] = test: as above
Experimental: as §1

786-O [23] = test: as above
Experimental: as §1

TK-10 [24] = test: as above
Experimental: as §1

Compound	AUC of dose-response viability curve (769-P [1])	AUC of dose-response viability curve (ACHN [2])	AUC of dose-response viability curve (CAKI-1 [3])	AUC of dose-response viability curve (UO-31 [4])	AUC of dose-response viability curve (A498 [5])	AUC of dose-response viability curve (SN12C [6])	AUC of dose-response viability curve (786-O [7])	AUC of dose-response viability curve (TK-10 [8])	GI50, drug alone (769-P [9]) [µM]	GI50, drug alone (ACHN [10]) [µM]	GI50, drug alone (CAKI-1 [11]) [µM]	GI50, drug alone (UO-31 [12]) [µM]	GI50, drug alone (A498 [13]) [µM]	GI50, drug alone (SN12C [14]) [µM]	GI50, drug alone (786-O [15]) [µM]	GI50, drug alone (TK-10 [16]) [µM]	minimum viability across doses (769-P [17])	minimum viability across doses (ACHN [18])	minimum viability across doses (CAKI-1 [19])	minimum viability across doses (UO-31 [20])	minimum viability across doses (A498 [21])	minimum viability across doses (SN12C [22])	minimum viability across doses (786-O [23])	minimum viability across doses (TK-10 [24])
COc1cc2c(N3CCN(C(=O)Nc4ccc(OC(C)C)cc4)CC3)ncnc2cc1OCCCN1CCCCC1 [Tandutinib (MLN518)]	3.32	3.5	3.41	4.36	3.63	3.14	3.61	3.23	> 10	> 10	> 10	> 10	> 10	> 10	> 10	> 10	0.818	0.767	0.729	1.09	0.96	0.74	0.609	0.818
CNC(=O)c1cc(COc2nnc(Nc3ccc(Cl)cc3)c3ccoc23)ccn1 [Telatinib (BAY 57-9352)]	3.4	3.42	3.3	4.45	4.32	3.27	2.61	2.96	9.79	9.99	6.76	> 10	> 10	> 10	3.22	6.45	0.484	0.497	0.267	0.749	0.951	0.79	0.0383	0.319
CC(=O)Nc1ccc(NC(=S)NC(=O)c2ccc(C(C)(C)C)cc2)cc1 [Tenovin-1]	2.48	2.75	2.96	2.6	2.77	3.15	1.52	2.63	0.818	9.84	> 10	0.264	0.978	> 10	0.17	5.19	0.0841	0.515	0.536	0.00581	0.0355	0.762	0.00113	0.412
O=C1CCC(N2C(=O)c3ccccc3C2=O)C(=O)N1 (centres undefined) [Thalidomide]	3.56	3.18	3.56	4.89	4.19	3.37	2	3.12	> 10	> 10	> 10	> 10	> 10	> 10	0.288	> 10	0.949	0.802	0.932	1.21	1.05	0.88	0.0165	0.824
O=C(NCc1ccccc1)c1csc(Nc2ccncn2)n1 [Thiazovivin]	3.01	3.15	3.17	3.55	3.9	3.58	2.69	3.36	> 10	7.22	> 10	4.49	> 10	> 10	> 10	> 10	0.717	0.369	0.609	0.279	0.891	0.804	0.526	0.69
O=c1sn(-c2cccc3ccccc23)c(=O)n1Cc1ccccc1 [Tideglusib]	3.48	3.19	3.54	4.53	3.82	3.28	2.12	2.95	> 10	> 10	> 10	> 10	> 10	> 10	0.0203	> 10	0.948	0.822	0.941	1.14	0.979	0.871	0.485	0.736
COc1ccc2cc(-c3[nH]c(-c4ccc(S(C)=O)cc4)nc3-c3ccncc3)ccc2c1 (centres undefined) [Tie2 kinase inhibitor]	3.4	3.08	3.54	5.91	4.67	3.4	3.15	3.35	> 10	> 10	> 10	> 10	> 10	> 10	> 10	> 10	0.951	0.762	0.864	1.2	1.08	0.755	0.52	0.799
COc1cc2nccc(Oc3ccc(NC(=O)Nc4cc(C)on4)c(Cl)c3)c2cc1OC [Tivozanib (AV-951)]	3.47	3.21	2.12	2.98	4.88	3.26	3.89	3.14	> 10	6.95	2.02	0.301	> 10	9.39	> 10	> 10	0.849	0.352	0.0726	0.00837	1.12	0.417	0.904	0.641
CCC(=O)N1CCN(c2ccc(-n3c(=O)ccc4cnc5ccc(-c6cnc7ccccc7c6)cc5c43)cc2C(F)(F)F)CC1 [Torin 1]	1.54	1.13	1.32	1.71	1.81	1.56	1.39	1.33	0.0719	0.0331	0.057	0.0767	0.0888	0.0872	0.0551	> 10	0.101	0.0432	0.0409	0.00725	0.0183	0.127	0.0473	0.116
CC(C)(C)c1cc(/C=C(\C#N)C(N)=S)cc(C(C)(C)C)c1O [Tyrphostin AG 879 (AG 879)]	3.56	3.12	3.62	5.27	4.17	3.11	1.6	2.95	> 10	> 10	> 10	> 10	> 10	> 10	< 0.003	> 10	0.91	0.78	0.712	1.28	1.02	0.787	0.257	0.748
CCO.N#CC(=C(/N)Sc1ccccc1N)/C(C#N)=C(\N)Sc1ccccc1N [U0126-EtOH]	3.3	3.17	3.35	4	3.94	3.49	2.86	2.95	> 10	> 10	> 10	> 10	> 10	> 10	> 10	> 10	0.806	0.646	0.564	0.943	0.913	0.901	0.576	0.656
Cc1cc(Nc2cc(N3CCN(C)CC3)nc(Sc3ccc(NC(=O)C4CC4)cc3)n2)n[nH]1 [VX-680 (MK-0457, Tozasertib)]	2.67	2.35	2.54	3.24	3.1	2.57	1.85	2.96	2.93	0.725	1.25	> 10	3.2	1.48	0.159	> 10	0.386	0.214	0.241	0.577	0.254	0.2	0.133	0.548
NC(=O)c1ccc(N(C(N)=O)c2c(F)cccc2F)nc1-c1ccc(F)cc1F [VX-702]	3.44	3.03	3.27	3.75	3.72	3.56	2.9	2.79	> 10	> 10	> 10	> 10	> 10	> 10	> 10	> 10	0.946	0.656	0.76	0.806	0.924	0.944	0.661	0.674
COc1cc2c(Nc3ccc(Br)cc3F)ncnc2cc1OCC1CCN(C)CC1 [Vandetanib (Zactima)]	2.88	2.6	3.12	4.05	3.29	3.2	2.98	2.58	5.26	1.57	5.12	9.07	> 10	> 10	> 10	1.8	0.324	0.133	0.265	0.162	0.68	0.507	0.532	0.166
Cl.Cl.Clc1ccc(Nc2nnc(Cc3ccncc3)c3ccccc23)cc1 [Vatalanib dihydrochloride (PTK787)]	3.69	2.59	3.48	4.41	4.65	3.4	3.3	3.41	> 10	> 10	> 10	> 10	> 10	> 10	> 10	> 10	1.01	0.587	0.807	1.11	0.933	0.901	0.692	0.887
CCCS(=O)(=O)Nc1ccc(F)c(C(=O)c2c[nH]c3ncc(-c4ccc(Cl)cc4)cc23)c1F [Vemurafenib (PLX4032)]	2.31	3.08	3.43	3.42	3.73	3.05	2.45	3.05	> 10	> 10	> 10	> 10	> 10	> 10	5.39	> 10	0.884	0.634	0.76	0.7	0.93	0.764	0.271	0.647
